Data reported in patent US7285569B2, “Tricycles, their manufacture and use as pharmaceutical agents” (Hoff Hoffmann-La Roche Inc., priority 2004, dated 2007).

Legend:
Aurora A = target: T1, Aurora A (Homo sapiens, UniProt O14965); test: IC50 determination for inhibitors of Aurora A (96 MTP-ELISA); format: biochemical; details: His4-tagged full-length Aurora A 250 ng/ml, PKB-GSK2 200 nM, ATP 4 μM, 90 min at room temperature; read-out: IC50 Aurora A kinase inhibition
T1 construct: C-terminally Histidine4 (His4)-tagged Aurora A full-length protein
T1 sequence (O14965 1-403): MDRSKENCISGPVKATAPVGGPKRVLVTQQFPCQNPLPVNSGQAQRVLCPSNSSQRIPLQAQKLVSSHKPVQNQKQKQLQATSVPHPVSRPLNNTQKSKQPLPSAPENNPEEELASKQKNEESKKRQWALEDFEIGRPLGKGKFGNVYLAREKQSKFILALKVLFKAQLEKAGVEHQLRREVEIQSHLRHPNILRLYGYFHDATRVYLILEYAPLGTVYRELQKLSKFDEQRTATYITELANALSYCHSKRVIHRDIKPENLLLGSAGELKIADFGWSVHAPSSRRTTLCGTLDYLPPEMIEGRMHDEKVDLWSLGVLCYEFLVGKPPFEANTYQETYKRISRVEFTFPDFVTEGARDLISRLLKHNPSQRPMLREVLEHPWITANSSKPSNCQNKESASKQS
Description: IC50 Determination for Inhibitors of Aurora A
Aurora A is a serine threonine kinase involved in spindle assembly and chromosome segregation.
The assay is a typically ELISA-type assay where biotinylated substrate (PKB-GSK2) is phosphorylated. Phosphorylation is detected by peroxidase (POD) labelled polyclonal antibody (PAK<M-Ig>S-IgG-POD) and phosphopeptide monoclonal antibody (Mab) (MAK<P-GSK>M-27E5-IgG). The assay is validated for IC50-determination.
Aurora A-His-4 C-terminally Histidine4 (His4)-tagged Aurora A full-length protein, stock solution 0.7 mg/ml, final conc.: 250 ng/ml
PKB-GSK2 biotinylated peptide derived from human GSK3-alpha sequence (Biotin-SGRARTSSFAEPGG-CONH2), stock solution 600 μM, final conc.: 200 nM
ATP Adenosine-5′-triphosphate 1 mM, diluted in kinase buffer, (Roche Diagnostics GmbH, Cat. No.: 127531-001,), final conc.: 4 μM
Kinase buffer 50 mM TRIS, 10 mM MgCl2, 1 mM DTT, 0.1% Tween 20, pH 7.8
This assay is performed in 96-well format for IC50 determination with 5 samples (each with 8 concentrations by twofold testing), 100 μl incubation volume and the following plate layout:
Step/Action 1. Sample preparation: add 24 μl per well samples (descending sequence) diluted in kinase buffer to assay plate (final conc. for DMSO 1%). 2. Add directly 16 μl Aurora-A-his-4 diluted in kinase buffer to assay plate. 3. Add directly 40 μl per well PKB-GSK2/ATP mixture to assay plate, (final conc.: Aurora A=250 ng/ml, GSK2=200 nM, ATP=4 μM). Negative control: without ATP. 4. Incubate assay plate for exactly 90 min at room temperature. 5. Stop reaction by adding 20 μl EDTA in all wells. 6. Wash assay plate 3× with 200 μl washing buffer per well. 7. Add 100 μl MAK<P-GSK>M27E5-IgG (1:10000) and PAK<M-Ig>S-IgG-POD (1:6000) dissolved in 3% BSA/PBS-T to assay plate per well. 8. Incubate assay plate for 60 min at room temperature. 9. Wash assay plate 3× with 200 μl washing buffer per well 10. Add 100 μl ABTS solution to assay plate per well, incubate for approx. 4 min at RT on MTP shaker. 11. Measure absorption at 405/492 nm. 12. Calculate % inhibition as: (1−(Esample−ENC)/(EPC−ENC))×100 13. Calculate IC50 using a non-linear curve fit (XLfit software (ID Business Solution Ltd., Guilford, Surrey, UK))

HCT 116 cells = test: CellTiter-Glo assay in HCT 116 cells (antiproliferative activity); format: cell-based; details: HCT 116 human colon carcinoma cells, 5 days (120 h) incubation, CellTiter-Glo luminescence
Description: Antiproliferative Activity
CellTiter-Glo™ Assay in HCT 116 Cells
The CellTiter-Glo™ Luminescent Cell Viability Assay (Promega) is a homogeneous method of determining the number of viable cells in culture based on quantitation of the ATP present, which signals the presence of metabolically active cells.
HCT 116 cells (human colon carcinoma, ATCC-No. CCI-247) were cultivated in RPMI 1640 medium with GlutaMAX™ I (Invitrogen, Cat-No. 61870-010), 2.5% Fetal Calf Serum (FCS, Sigma Cat-No. F4135 (FBS)); 100 Units/ml penicillin/100 μg/ml streptomycin (=Pen/Strep from Invitrogen Cat. No. 15140). For the assay the cells were seeded in 384 well plates, 1000 cells per well, in the same medium. The next day the test compounds were added in various concentrations ranging from 30 μM to 0.0015 μM (10 concentrations, 1:3 diluted). After 5 days the CellTiter-Glo™ assay was done according to the instructions of the manufacturer (CellTiter-Glo™ Luminescent Cell Viability Assay, from Promega). In brief: the cell-plate was equilibrated to room temperature for approximately 30 minutes and than the CellTiter-Glo™ reagent was added. The contents were carefully mixed for 15 minutes to induce cell lysis. After 45 minutes the luminescent signal was measured in Victor 2, (scanning multiwell spectrophotometer, Wallac).
Medium: RPMI 1640 with GlutaMAX™ I (Invitrogen, Cat-Nr. 61870), 5% FCS (Sigma Cat.-No. F4135), Pen/Strep (Invitrogen, Cat No. 15140).
HCT116 (ATCC-No. CCI-247): 1000 cells in 60 μl per well of 384 well plate (Greiner 781098, μClear-plate white)
After seeding incubate plates 24 h at 37° C., 5% CO2
2nd. Day: Induction (Treatment with Compounds, 10 Concentrations):
In order to achieve a final concentration of 30 μM as highest concentration 3.5 μl of 10 mM compound stock solution were added directly to 163 μl media. Then step e) of the dilution procedure described below, was followed.
In order to achieve the second highest to the lowest concentrations, a serial dilution with dilution steps of 1:3 was followed according to the procedure (a-e) as described here below: • for the second highest concentration add 10 μl of 10 mM stock solution of compound to 20 μl dimethylsulfoxide (DMSO) • dilute 8×1:3 (always 10 μl to 20 μl DMSO) in this DMSO dilution row (results in 9 wells with concentrations from 3333.3 μM to 0.51 μM) • dilute each concentration 1:47.6 (3.5 μl compound dilution to 163 μl media) • add 10 μl of every concentration to 60 μl media in the cell plate resulting in final concentration of DMSO: 0.3% in every well and resulting in 10 final concentration of compounds ranging from 30 μM to 0.0015 μM. • Each compound is tested in triplicate. • Incubate 120 h (5 days) at 37° C., 5% CO2 Analysis:
Add 30 μl CellTiter-Glo™ Reagent (prepared from CellTiter-Glo™ Buffer and CellTiter-Glo™ Substrate (lyophilized) purchased from Promega) per well, • shake 15 minutes at room temperature • incubate further 45 minutes at room temperature without shaking Measurement:
Victor 2 scanning multiwell spectrophotometer (Wallac), Luminescence mode (0.5 sec/read, 477 nm)
Determine IC50 using a non-linear curve fit (XLfit software (ID Business Solution Ltd., Guilford, Surrey, UK))

IC50 (Aurora A) [nM]	IC50 (HCT 116 cells) [nM]	SMILES
10 to 500	4670	CC(=O)N1CC(C)(C)c2cc3nc(-c4cc(C)n[nH]4)[nH]c3cc21 [Example 2, 1-[7,7-Dimethyl-2-(5-methyl-2H-pyrazol-3-yl)-6,7-dihydro-3H-imidazo[4,5-f]indol-5-yl]-ethanone]
212	10000 to 100000	Cc1cc(-c2nc3cc4c(cc3[nH]2)C(C)(C)CC(=O)N4)n[nH]1 [Example 3, 8,8-Dimethyl-2-(5-methyl-1H-pyrazol-3-yl)-1,5,7,8-tetrahydro-imidazo[4,5-g]quinolin-6-one]
500 to 1500	7650	CC(C)Cc1cc(-c2nc3cc4c(cc3[nH]2)C(C)(C)CC(=O)N4)[nH]n1 [Example 4, 2-(5-Isobutyl-2H-pyrazol-3-yl)-8,8-dimethyl-1,5,7,8-tetrahydro-imidazo[4,5-g]quinolin-6-one]
10 to 500	100 to 10000	Cc1cc(-c2nc3cc4c(cc3[nH]2)NC(=O)C4(C)C)n[nH]1 [Example 5, 7,7-Dimethyl-2-(5-methyl-2H-pyrazol-3-yl)-5,7-dihydro-3H-imidazo[4,5-f]indol-6-one]
500 to 1500	100 to 10000	CC(C)Cc1cc(-c2nc3cc4c(cc3[nH]2)C(C)(C)C(=O)N4)[nH]n1 [Example 6, 2-(5-isobutyl-2H-pyrazol-3-yl)-7,7-dimethyl-5,7-dihydro-1H-imidazo[4,5-f]indol-6-one]
10 to 500	100 to 10000	Cc1cc(-c2nc3cc4c(cc3[nH]2)NC(=O)C42CCCC2)[nH]n1 [Example 7, 2-(5-Methyl-2H-pyrazol-3-yl)-spiro-5,7-dihydro[cyclopentane-1′,7-imidazo[4,5-f]indol]-6(3H)-one]
500 to 1500	10000 to 100000	Cc1cc(-c2nc3cc4[nH]c(=O)[nH]c4cc3[nH]2)n[nH]1 [Example 9, 6-(5-Methyl-1H-pyrazol-3-yl)-3,5-dihydro-1H-benzo[1,2-d;4,5-d′]diimidazol-2-one]
158	10000 to 100000	Cc1cc(-c2nc3cc4[nH]c(=O)n(C(C)C)c4cc3[nH]2)n[nH]1 [Example 11, 3-Isopropyl-6-(5-methyl-1H-pyrazol-3-yl)-3,5-dihydro-1H-benzo[1,2-d;4,5-d′]diimidazol-2-one]
10 to 500	100 to 10000	Cc1[nH]nc(-c2nc3cc4c(cc3[nH]2)C(C)(C)C(=O)N4)c1C [Example 17, 2-(4,5-Dimethyl-1H-pyrazol-3-yl)-7,7-dimethyl-5,7-dihydro-1H-imidazo[4,5-f]indol-6-one]
10 to 500	100 to 10000	CC(C)CCc1cc(-c2nc3cc4c(cc3[nH]2)C(C)(C)C(=O)N4)n[nH]1 [Example 18, 7,7-Dimethyl-2-[5-(3-methyl-butyl)-1H-pyrazol-3-yl]-5,7-dihydro-1H-imidazo[4,5-f]indol-6-one]
10 to 500	100 to 10000	CCCc1cc(-c2nc3cc4c(cc3[nH]2)C(C)(C)CC(=O)N4)[nH]n1 [Example 23, 8,8-Dimethyl-2-(5-propyl-2H-pyrazol-3-yl)-1,5,7,8-tetrahydro-imidazo[4,5-g]quinolin-6-one]
500 to 1500	100 to 10000	CC1(C)CC(=O)Nc2cc3nc(-c4cc[nH]n4)[nH]c3cc21 [Example 24, 8,8-Dimethyl-2-(1H-pyrazol-3-yl)-1,5,7,8-tetrahydro-imidazo[4,5-g]quinolin-6-one]
10 to 500	100 to 10000	O=C1Nc2cc3[nH]c(-c4ccn[nH]4)nc3cc2C12CCCC2 [Example 27, 2-(2H-pyrazol-3-yl)-spiro-5,7-dihydro[cyclopentane-1′,7-imidazo[4,5-f]indol]-6(3H)-one]
500 to 1500	100 to 10000	CC(C)c1cc(-c2nc3cc4c(cc3[nH]2)NC(=O)C42CCCC2)[nH]n1 [Example 28, 2-(5-Isopropyl-2H-pyrazol-3-yl)-spiro-5,7-dihydro[cyclopentane-1′,7-imidazo[4,5-f]indol]-6(3H)-one]
500 to 1500		CCCc1cc(-c2nc3cc4c(cc3[nH]2)NC(=O)C42CCCC2)[nH]n1 [Example 29, 2-(5-Propyl-2H-pyrazol-3-yl)-spiro-5,7-dihydro[cyclopentane-1′,7-imidazo[4,5-f]indol]-6(3H)-one]
10 to 500	100 to 10000	Cc1cc(-c2nc3cc4c(cc3[nH]2)N(C)C(=O)C4(C)C)n[nH]1 [Example 31, 5,7,7-Trimethyl-2-(5-methyl-1H-pyrazol-3-yl)-5,7-dihydro-3H-imidazo[4,5-f]indol-6-one]
10 to 500	100 to 10000	Cc1cc(-c2nc3cc4c(cc3[nH]2)C(C)(C)C(=O)N4C(C)C)[nH]n1 [Example 34, 5-Isopropyl-7,7-dimethyl-2-(5-methyl-2H-pyrazol-3-yl)-5,7-dihydro-1H-imidazo[4,5-f]indol-6-one]
10 to 500	100 to 10000	CCCc1cc(-c2nc3cc4c(cc3[nH]2)C(C)(C)C(=O)N4C(C)C)[nH]n1 [Example 35, 5-Isopropyl-7,7-dimethyl-2-(5-propyl-2H-pyrazol-3-yl)-5,7-dihydro-1H-imidazo[4,5-f]indol-6-one]
10 to 500	100 to 10000	CCCN1C(=O)C(C)(C)c2cc3[nH]c(-c4cc(C)n[nH]4)nc3cc21 [Example 36, 7,7-Dimethyl-2-(5-methyl-2H-pyrazol-3-yl)-5-propyl-5,7-dihydro-1H-imidazo[4,5-f]indol-6-one]
